Results on 3 molecules are retold here after patent EP0013790A1, “Clavulanic acid derivatives, their preparation and pharmaceutical compositions containing them” (BEECHAM GROUP PLC, priority 1978, dated 1980).

Molecules are shown by their SMILES. ≈ marks a conversion by molar mass, not a printed value.

In one assay the test system is E. coli JT 39. The experiment in a line: MIC by standard microtitre method, alone and in admixture with ampicillin. It counts as cell-based. Particulars: Escherichia coli, JT39; compound alone. The protocol: (§1) The MICs of ampicillin, 9-O-(N-glycyl)-2-amino- ethylclavulanic acid (GAECA) alone and in admixture against a number of bacteria were determined by a standard microtitre method. The results obtained were as follows: The MICs of ampicillin, 9-O-(N-alanyl)-2-amino- ethylclavulanic acid (AAECA) alone and in admixture against a number of bacteria were determined by a standard microtitre method.

In the next assay the test system is Klebsiella aerog. E.70. The assay is described as above. Type of assay: cell-based. As to conditions: compound alone. The protocol:
as §1

For another assay, the system named is Proteus C 889. Described as above. Type of assay: cell-based. As to conditions: compound alone. The protocol:
as §1

A further assay deals with Staph. aureus Russell. Described as above. It counts as cell-based. Particulars: compound alone; for MIC: Staphylococcus aureus. On the procedure:
as §1

The next assay deals with E.Col: E96 (R + strain). The experiment in a line: Synergistic activity in mice infected intraperitoneally. Type of assay: in vivo. Particulars: mice infected intraperitoneally with E.Col: E96 (R + strain); oral and sub-cutaneous route. From the text: The results obtained were as follows: • Synergistic activity in Mice infected intraperitoneally with E.Col: E96 (R + strain) [formula]

With `C[C@H](N)C(=O)NCCOC/C=C1\O[C@@H]2CC(=O)N2[C@H]1C(=O)O` [AAECA, 9-0-(N-L-alanyl)-2-aminoethylclavulanic acid], the minimum inhibitory concentration (MIC) with E. coli JT 39 is 16 µg/mL (≈ 51.1 µM); with Klebsiella aerog. E.70 it was 125 µg/mL (≈ 399 µM); with Proteus C 889, 250 µg/mL (≈ 798 µM); in the assay on Staph. aureus Russell, 8 µg/mL (≈ 25.5 µM). Also, the “Synergistic activity in vivo” value with E.Col: E96 (R + strain) was “good activity in vivo by both the oral and sub-cutaneous route”.
`CC1(C)S[C@@H]2[C@H](NC(=O)[C@H](N)c3ccccc3)C(=O)N2[C@H]1C(=O)O` [Ampicillin, ampicillin, reference compound]: the minimal inhibitory concentration (MIC) in the assay with E. coli JT 39 was found to be 2000 µg/mL (≈ 5720 µM); in the assay with Klebsiella aerog. E.70, 500 µg/mL (≈ 1430 µM); in the assay with Proteus C 889 it was 2000 µg/mL (≈ 5720 µM); with Staph. aureus Russell it was 250 µg/mL (≈ 715 µM). In the assay with Proteus C 889, the “MIC (µg/ml) Proteus C 889” value was determined as 1000 µg/mL (≈ 2860 µM). In the assay with Staph. aureus Russell, the “MIC (µg/ml) Staph. aureus Russell” value came out at 500 µg/mL (≈ 1430 µM).
For the molecule `NCC(=O)NCCOC/C=C1\O[C@@H]2CC(=O)N2[C@H]1C(=O)O` [GAECA, 9-0-(N-Glycyl)-2-aminoethylclavulanic acid], the MIC in the assay on E. coli JT 39 worked out at 51.2 µg/mL (≈ 171 µM); with Klebsiella aerog. E.70, 62.5 µg/mL (≈ 209 µM); with Proteus C 889, 250 µg/mL (≈ 835 µM); with Staph. aureus Russell, 8 µg/mL (≈ 26.7 µM).

What is called MIC is the lowest concentration that inhibits growth of the organism.
